One block for each compound: values may come before it.
Legend:
Cdk2 = conditions: previous report (Adnane et al. 1998); cited from earlier work
[1] = test system: MDA-MB-231 breast cancer tumors; assay: Anti-tumor activity in the nude mouse tumor xenograft model; type: in vivo, nude mice; conditions: for average tumor size: vehicle 860±87
Method: Nude mice (nu/nu, Charles River, Wilmington, Mass.) were maintained in accordance with the Institutional Animal Care and Use Committee (IACUC) procedures and guidelines. MDA-MB-231 cells were harvested via trypsinization, pelleted at 805×g for 5 min, and re-suspended in a 50:50 mixture of sterile PBS and Matrigel (BD Biosciences) at 10×10^6 cells per 100 μl. A volume of 100 μl (˜10×10^6 cells) was injected orthotopically into the upper mammary fat pads of nude mice. The tumor xenografts were monitored by electronic caliper measurements and tumor volume (V) was calculated using the formula V=W^2L/2, where width (W) is […]. When the tumors reached ˜100 mm^3, the animals were randomized and injected intraperiteoneally daily with vehicle (70% DMSO), or 100 mg/kg GGTI-2417 or GGTI-2418, or every third day with GGTI-2418 (200 mg/kg. Tumors were measured every third day for 12-18 days.

[2] = test system: ErbB2-driven mammary tumors; assay: Anti-tumor activity in the ErbB2 transgenic mouse model; type: in vivo
Source text: (§1) A breeding pair of homozygous FVB/N-Tg (MMTVneu) 202Mul/J mice (JAX #002376, Bar Harbor, Me.) was used to generate a transgenic colony in accordance to IACUC protocols and procedures. Phenotypically, these mice overexpress the receptor tyrosine kinase ErbB2 driven by the MMTV promoter, which results in tumor formation at ˜200 days of age. Once tumors reached sizes above 800 mm^3, osmotic mini-pumps (Alzet, Cupertino, Calif.) were loaded with either vehicle (80% PEG300; 20% DMSO) or GGTI-2418 (100 mg/kg daily) and implanted subcutaneously under the dorsal surface of the mouse, between the shoulder blades. Vehicle or GGTI-2418 was constantly delivered for 14 days, during which tumor volumes were measured and calculated as described above. Tumor biopsies were snap frozen in liquid N2 and stored at −80° C. until further processed. Weighted tumor samples were mixed with the appropriate amount of T-PER® Tissue Protein Extraction Reagent (Pierce, Rockford, Ill.) containing protease inhibitor cocktail, 2 mM PMSF, 2 mM Na3VO4, and 6.4 mg/ml p-nitrophenylphosphate and homogenized with the PCR Tissue Homogenizing Kit (Fisher Scientific). The homogenate was centrifuged at 13,000×g for 30 min at 4° C. and the supernatant was subjected to Western blotting with the indicated antibodies.

FTase = biological target: T1, FTase (Homo sapiens, UniProt P49354+P49356); assay: In vitro FTase activity assay ([3H]FPP transfer to H-Ras-CVLS); type: biochemical; conditions: read-out: IC50, inhibition of FTase activity
T1 construct: GGTase I and FTase activities from 60,000×g supernatants of human Burkitt's lymphoma (Daudi) cells; host or cells: Daudi (human Burkitt's lymphoma) cells, 60,000xg supernatant
Method: (§2) A brief discussion of exemplary materials and methods follows. In vitro FTase and GGTase I activity assays were performed. GGTase I and FTase activities from 60,000×g supernatants of human Burkitt's lymphoma (Daudi) cells (American Type Culture Collection (ATCC), Rockville, Md.) were assayed as described previously.

GGTase I = biological target: T2, GGTase I (Homo sapiens, UniProt P49354+P53609); assay: In vitro GGTase I activity assay ([3H]GGPP transfer to H-Ras-CVLL); type: biochemical
T2 construct: GGTase I and FTase activities from 60,000×g supernatants of human Burkitt's lymphoma (Daudi) cells; host or cells: Daudi (human Burkitt's lymphoma) cells, 60,000xg supernatant
Method: as §2

p27, Rap1, phospho-Akt = assay: Western blot of tumor biopsies from ErbB2 transgenic mice; type: in vivo, mouse
Source text: as §1

[3] = test system: MDA-MB-468 breast cancer cells; assay: Trypan Blue exclusion assay (proliferation, cell death) in MDA-MB-468 cells; type: cell-based, human; conditions: 5 nM p27 siRNA; 50 μM GGTI-2417 or 1 μM taxol
Method: Human MDA-MB-468 and MDA-MB-231 breast cancer cells and murine NIH 3T3 cells were obtained from the ATCC and cultured in DMEM medium. Human SK-Br3 and BT-474 breast cancer cells (ATCC) were cultured in McCoy's 5a medium and Hybri-Care medium, respectively. Mouse embryonic fibroblast (MEF) cells from p27 wild-type and p27 null mice were grown in DMEM. All media were supplemented with 10% fetal calf serum, 10 units/ml penicillin, and 10 μg/ml streptomycin. Subconfluent cells were treated with different concentrations of GGTI, FTI or DMSO vehicle for specific time periods. After treatment, cells were harvested by trypsinization.
Pre-designed siRNA to p27 (Cat #118714) and the negative control (Cat #4611) were purchased from Ambion (Austin, Tex.). Twenty-four hours before transfection, MDA-MB-468 cells were plated onto twelve-well plates in fresh DMEM medium containing 10% FBS and no antibiotics. Transient transfection of siRNA was carried out using Oligofectamine reagent (Invitrogen, Carlsbad, Calif.), following the manufacturer's instructions. In brief, 5 nM of p27 siRNA or control siRNA were mixed with Opti-MEM medium (Invitrogen) in such a way so that the total volume went to 90 μl, and then complexed with a mixture of 2 μl of Oligofectamine and 8 μl Opti-MEM; the total volume of RNA:Oligofectamine complex was 100 μl. The RNA:Oligofectamine complex was then incubated for 20 min at room temperature before adding to the cells. Before transfection, the old medium was discarded, cells were washed once with fresh Opti-MEM and 400 μl of fresh Opti-MEM placed into each well before adding the RNA:Oligofectamine complex to each well. The final diluted volume on each well was 500 μl. After 8 h, 500 μl DMEM containing 30% FBS was added to each well and cells were further incubated for 40 h.
Adherent cells were harvested by trypsinization and diluted with 0.4% Trypan Blue dye and counted on a hemacytometer. Cells excluding the dye were scored as live cells, whereas cells absorbing the dye were scored as dead cells. Cell proliferation was determined by dividing the number of live cells in the treated sample by the number of live cells in the control, and the degree of cell death was expressed as percentage of dead cells of the total cell number.

Structure (SMILES): COC(=O)[C@H](CC(C)C)NC(=O)c1ccc(NC[C@@H](N)CS)cc1-c1cccc2ccccc12 [GGTI-298]
Cdk2 activity (Cdk2): inhibits Cdk2 activity

IC50 (FTase): 53000 ± 11000 nM | Ki (GGTase I; in vitro competition assay, read-out: Ki, competitive inhibition of GGTase I against H-Ras-CVLL protein): 4.4 ± 1.6 nM | IC50 (GGTase I; in vitro, H-Ras-CVLL, [3H]GGPP, read-out: IC50, inhibition of GGTase I activity): 9.5 ± 2 nM
Structure (SMILES): Cc1nc[nH]c1CN1CCN(C(=O)N[C@@H](CC(C)C)C(=O)O)[C@@H](Cc2ccccc2)C1=O [GGTI-2418]
tumor growth inhibition ([1]; 100 mg/kg daily i.p.): 94% | average tumor size ([1]; 100 mg/kg daily i.p.): 139±17 mm^3 | tumor growth inhibition ([1]; 200 mg/kg every 3rd day i.p.): 77% | average tumor size ([1]; 200 mg/kg every 3rd day i.p.): 276±26 mm^3 | tumor regression, average (S.E.M.) ([2]; 100 mg/kg, 7 mice, 17 tumors): 60±4% | tumor decrease, representative example ([2]; 100 mg/kg/day, osmotic mini-pump): 76% | S473 phosphorylation of Akt in tumors (p27, Rap1, phospho-Akt; pre vs post treatment biopsies): dramatic decrease | geranylgeranylation of Rap1 in tumors (p27, Rap1, phospho-Akt; pre vs post treatment biopsies): inhibited the geranylgeranylation of Rap1 | change of p27 in post-treatment tumor samples (densitometry) (p27, Rap1, phospho-Akt; vehicle 0.63±0.19 fold, p=0.03): 2.68±0.63 fold

Structure (SMILES): CC(=O)O[C@H]1C(=O)[C@@]2(C)[C@H]([C@H](OC(=O)c3ccccc3)[C@]3(O)C[C@H](OC(=O)[C@H](O)[C@@H](NC(=O)c4ccccc4)c4ccccc4)C(C)=C1C3(C)C)[C@]1(OC(C)=O)CO[C@@H]1C[C@@H]2O [taxol, reference compound]
tumor cell death in the presence of p27 siRNA [3]: could still die

— US10946012B2, “Methods for inducing tumor regression, inhibiting tumor growth, and inducing apoptosis in breast tumors with geranylgeranyltransferase I inhibitors” (H. Lee Moffitt Cancer Center and Research Institute, Inc., priority 2009, dated 2021)
